Laboratory results from patent US7704502B2, “Combinations of antibodies selective for DR5 and other therapeutic agents” (The UAB Research Foundation, priority 2000, dated 2010).
Residues, ends and D or L forms follow the SMILES beside them. *: point of attachment. Cbz = O=C(OCc1ccccc1)*; CH2F = FC*

Assays:
[1] = test system: MMP-1, 3, and 13; assay: Production of MMPs by RA synovial cells (ELISA); format: cell-based, human; conditions: overnight; 50 ng/ml interleukin 1b, 10 ng/ml TNF-a, 50 ng/ml TRAIL or TRA-8; vs medium control
Procedure: Thus, it is possible that TRAIL, like TNF-α, may serve as a pro-inflammatory cytokine. […] The levels of the MMP-1 and MMP-3 in the culture supernatants are determined by the ELISA kits.

[2] = test system: Jurkat cells; assay: Jurkat cell viability after overnight culture (ATPLite, MTT, PI exclusion); format: cell-based, human; conditions: 50 ng/ml TRA-8 overnight plus caspase inhibitor
Procedure: (§1) Cell viability is determined using (1) the ATPLite® kit according to the manufacturer's instructions (Packard Instruments, Meriden, Conn.); (2) the MTT Cell proliferation/viability kit (Sigma); or (3) PI staining of dead cells and analyzed by flow cytometry. At end of culture, cells are stained with 10 μg/ml PI and PI negative cells are gated as viable cells. For analysis of condensed nuclei of hepatocytes, cells are stained with 10 ng/ml Hoechst 33352 (Molecular Probes) and analyzed by flow cytometry.

[3] = test system: NF-κb; assay: Gel-shift assay of NF-κb activation in RA synovial cells; format: cell-based, human; conditions: 50 ng/ml TRAIL, Fas ligand or TRA-8; 20 ng/ml TNF-a
Procedure: There is considerable evidence to support the concept that there are close links between the signaling of apoptosis and the signaling of proliferation (45). It has been established that DR5 is able to activate a NF-kb pathway in addition to apoptosis signaling transduction, and that NF-κb activation may be able to transduce an anti-apoptosis signal. Therefore a gel-shift assay is carried out. […] The nuclear extracts are prepared and incubated with the […] [^32P]-labeled oligo-DNA probe. The results are analyzed using the cyclone phospha-imager (TopCount NXT, Packard Instrument Company, CT).

[4] = target: T1, DR5 (Homo sapiens, UniProt O14763); assay: ELISA binding of TRAIL and TRA-8 to the receptors
T1 construct: fusing cDNA from residues 1-180 of the extracellular portion of DR5; made in house; host or cells: QBI-293A cells, recombinant adenovirus (pAdΔDR5-Fc)
T1 sequence (O14763 56-180): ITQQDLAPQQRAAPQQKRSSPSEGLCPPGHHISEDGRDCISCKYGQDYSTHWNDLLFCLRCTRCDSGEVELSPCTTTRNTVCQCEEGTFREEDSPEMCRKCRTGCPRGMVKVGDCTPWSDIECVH
Source text: (§2) The reactions are developed by TMB substrate buffer and measured by the Benchmark Microplate Reader (BioRad). The Kd values are estimated by the one-site binding model of non-linear regression using GraphPad Prism® software (GraphPad Software, San Diego, Calif.).

[5] = test system: non-transformed fibroblast cells; assay: Apoptosis of fibroblast cells; format: cell-based
[6] = test system: glioma cell lines Hs683 and U251-MG; assay: Apoptosis susceptibility (ATPLite, overnight); format: cell-based, human
Procedure: as §1

[7] = test system: B lymphoma cell lines SKW6.4, EB-3, and Raji; assay: Apoptosis susceptibility (ATPLite, overnight); format: cell-based, human; conditions: TRAIL plus crosslinker
Procedure: as §1

[8] = test system: Primary peripheral blood T cells; assay: Apoptosis susceptibility (ATPLite, overnight); format: cell-based, human; conditions: TRAIL plus crosslinker
Procedure: as §1

[9] = test system: Molt-4 and U937 cells; assay: Apoptosis susceptibility (ATPLite, overnight); format: cell-based, human; conditions: TRAIL plus crosslinker
Procedure: as §1

[10] = test system: U87, U937 and Molt-4; assay: Apoptosis susceptibility (ATPLite, overnight); format: cell-based, human
Procedure: as §1

[11] = test system: primary B cells; assay: Apoptosis susceptibility (ATPLite, overnight); format: cell-based, human; conditions: TRAIL plus crosslinker
Procedure: as §1

[12] = test system: H-9 cells; assay: Apoptosis susceptibility (ATPLite, overnight); format: cell-based, human; conditions: TRAIL plus crosslinker
Procedure: as §1

[13] = test system: Jurkat and CEM-6; assay: Apoptosis susceptibility (ATPLite, overnight); format: cell-based, human; conditions: TRAIL plus crosslinker
Procedure: as §1

[14] = test system: Daudi; assay: Apoptosis susceptibility (ATPLite, overnight); format: cell-based, human; conditions: TRAIL plus crosslinker
Procedure: as §1

[15] = test system: HepG2 cells; assay: Cell viability (ATPLite); format: cell-based, human; conditions: 8-hour culture period
[16] = test system: OA72M cells; assay: Apoptosis of primary synovial cells; format: cell-based, human
Source text: (§3) Cell viability is the percentage of the cpm of treated cells versus the cpm of untreated cells.
(§4) The expression of DR5 on a panel of eight primary cultured synovial cells from patients with RA is compared with that on eight primary cultured synovial cells from patients with osteoarthritis (hereinafter referred to as “OA”). The eight human primary RA synovial cell cultures RA-1014, RA-1016, RA-1021, RA-512, RA-707, RA-811, RA-716, and RA-929 are kindly provided by Dr. M. Ohtsuki (Sankyo Co. Ltd., Tokyo, Japan) and cultured in DMEM supplemented with 10% FCS, penicillin, streptomycin, and glutamine. The […] OA synovial cell primary cell cultures are isolated from the synovial tissues of OA patients by a standard collagenase method and cultured under the same conditions. The passage number of all primary cells is under 10. The expression of DR5 is determined by FACs analysis as described in Example 5.

[17] = test system: RA-1014, RA-811, RA-716, and RA929; assay: Apoptosis of primary synovial cells; format: cell-based, human; conditions: high concentrations (>50 ng/ml)
Source text: as §3, §4

[18] = test system: SV40 transformed synovial cells; assay: Apoptosis of synovial cells; format: cell-based, human; conditions: data not shown
[19] = test system: normal human hepatocytes; assay: Hepatocellular toxicity, cell viability (ATPLite); format: cell-based
Source text: For 24-hour cell viability assays, fresh normal human hepatocytes in 96-well plates were purchased from In Vitro Technology (Baltimore, Md.). […] For 6-hour viability assays, normal hepatocytes or hepatocellular cancer cells are isolated from fresh surgical specimens collected from UAB Tissue Procurement Center. All reagents for isolation of human hepatocytes including hepatocytes perfusion buffer, digest medium, washing medium, and attachment medium were purchased from Gibco. The tissue slides are digested in the Hepatocyte Digest Medium at 37° C. with shaking (50 rpm) for one hour. The isolated hepatocytes are harvested by low speed centrifugation (50 g, 3 min), and washed with the Hepatocyte Washing Medium six times. Single cell suspension of hepatocytes are cultured in the Attachment Medium containing 10% FCS in 96-well Matrigel plates (BD) for six hours. Non-attached hepatocytes are removed by twice washing with pre-warmed attachment medium.

[20] = Induction of hepatitis in vivo by tetracycline-inducible adenoviral vectors; parameters: species or system B6 mice; conditions: 10 μg in Ad/TRAIL inoculated mice, AST at 24 hours
Procedure: 8-10 week-old female B6 mice are intravenously injected with 10^9 pfu of Ad/hTRAIL with the equal number of Ad/Tet-on. Mice are fed with different concentrations of tetracycline in their drinking water immediately after inoculation of adenoviral vectors. Liver injury is determined by serum levels of AST using an AST diagnostic kit (Sigma). Expression of TRAIL is determined by Northern blot analysis.

[21] = target: T2, DR4 (Homo sapiens, UniProt O00220); assay: ELISA binding of TRAIL and TRA-8 to the receptors
T2 construct: a fusion protein comprising the extracellular domain of human DR5 or DR4 and the Fc region of human IgG1; human IgG1 Fc (Ig)
T2 sequence (O00220 24-239 limits assumed): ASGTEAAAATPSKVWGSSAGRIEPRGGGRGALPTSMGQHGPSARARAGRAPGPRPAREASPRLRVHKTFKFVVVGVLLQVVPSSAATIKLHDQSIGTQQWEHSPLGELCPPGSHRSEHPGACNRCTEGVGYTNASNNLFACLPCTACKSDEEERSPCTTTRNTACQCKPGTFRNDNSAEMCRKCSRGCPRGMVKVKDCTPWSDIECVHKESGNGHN
Procedure: as §2, with “ELISA plates are coated with 2 μg/ml of DR4-Ig or DR5-Ig fusion protein overnight. […] The reactions” for “The reactions”

[22] = test system: 2LMP xenografts; assay: Analysis of apoptosis in xenografts (TUNEL); format: in vivo, athymic nude mice; conditions: day 14
Procedure: One group of mice was untreated. The xenografts were dissected for the study of apoptosis on day 14 after tumor cell injection. The reason for the substantial reduction in treatment intensity compared to our standard treatment protocol was to allow adequate tumor tissue for analysis on day 14. Tunel assay for apoptosis in tumor xenografts was performed as follows. Five-micron paraffin sections of tissue were mounted on Superfrost/Plus slides and heated at 58° C. for 1 h. Tissue sections were deparaffinized in three changes of xylene and rehydrated with one change of absolute ethanol, 95% ethanol, and 70% ethanol, each in 5-min increments. Then, the sections were placed in Tris-buffered saline (0.5M Tris base, 0.15 M NaCl, 0.0002% Triton X-100™, pH 7.6). Apoptotic nuclei were detected using an Apop Tag Peroxidase kit (Intergen, Purchase, N.Y.). Proteinase K (20 μg/ml in distilled deionized H2O) was added to the tissue specimens and incubated at room temperature for 15 min. Endogenous peroxidases were quenched with an aqueous solution of 3% hydrogen peroxide for 5 min. Sections were treated with an equilibration buffer for 30 min and then incubated with the TdT/enzyme (diluted in labeling reaction mix) for 1 h at 37° C. using parafilm covers. During this incubation, the TdT enzyme binds the 3′-OH ends of DNA fragments and catalyzes the addition of digoxigenin-labeled and unlabeled deoxynucleotides. Negative controls were incubated with distilled H2O (diluted in labeling reaction mix) instead of the TdT enzyme. A stop buffer was added for 10 min at room temperature to terminate the labeling reaction. An anti-digoxigenin conjugate was added to each slide for 30 min. The chromagen 3,3′ DAB was used to visualize the labeled 3′ OH end of DNA fragments. The slides were then rinsed in deionized water and lightly counterstained with hematoxylin, dehydrated using graded alcohols and xylene and coverlsipped using Permount. Approximately 10 random fields were evaluated for percentage of Tunel stained and percentage of intensely stained apoptotic bodies throughout the tissue.

[23] = test system: 2LMP human breast cancer xenografts; assay: TRA-8 therapy alone or with chemotherapy or radiation, breast cancer xenografts; format: in vivo, athymic nude mice
Procedure: Athymic nude mice were injected s.c. with 3×10^7 2LMP cells. […] The growth of tumors was monitored over time. […] Tumor size and regression rates were determined.
Data from 6 independent experiments were analyzed by individual experiment. Treatment combinations were compared with respect to in vivo anti-tumor efficacy, i.e., inhibition of tumor growth, which was measured as three endpoints; extension of tumor doubling times, percentage of tumor regressions, and growth rates over time. The actual number of days at which the tumor doubled in surface area (product of two diameters) relative to baseline on day 7 after tumor cell injection was used in the doubling time analysis. The nonparametric Kruskal-Wallis test was used for median tumor doubling time comparisons between treatments. Fisher's exact test was used to compare the proportions of tumor regressions and relapse-free regressions across treatment groups. To determine if any combination therapy produced significant synergistic inhibition of tumor growth, i.e., more than additive, the growth curves from the serial area measurements were compared using a linear mixed model approach over the first 3 weeks after start of therapy (Lindsey, J. K. Models for Repeated Measurements, pp. 100-142, Oxford, 1993). To test for synergistic effects of the combination therapies, an interaction term was included in the model. If the interaction term was significant and the effect was inhibition of growth at a rate greater than additive then the interaction was considered synergistic.
A total of 166 animals, 10 treatment groups, and 6 independent experiments were included in the aggregate analysis. Treatment combinations were compared with respect to in vivo anti-tumor efficacy. The median tumor doubling times were analyzed using the Kruskal-Wallis test and Fisher's exact test was used to compare the proportions of tumor regressions and relapse-free regressions across treatment groups.

[24] = aggregate of 6 experiments, number of animals (%)
[25] = aggregate of 6 experiments, relative to day 7

## IL-1b: proinflammatory cytokine
[1]
  production/release of MMPs: increased

## CC(NC(=O)C(NC(=O)OCc1ccccc1)C(C)C)C(=O)NC(CC(=O)O)C(=O)CF (stereo not drawn) [Z-VAD] (Cbz-Val-Ala-Asp-CH2F; configuration not given here)
[2]
  inhibition of TRA-8-induced cell death: completely inhibited

## TNF-α
[1]
  production/release of MMPs: increased
[3]
  NF-κb activation: activated in a time-dependent fashion

## TRAIL: soluble recombinant human TRAIL (aa 95 to 281) FLAG-tagged fusion protein, Alexis; used with anti-FLAG crosslinker
[4]
  binding to immobilized DR5: bound comparably
[5]
  susceptibility to apoptosis: resistant
[6]
  susceptibility to apoptosis: resistant
[7]
  susceptibility to apoptosis: very susceptible
[8]
  susceptibility to apoptosis: resistant
[9]
  susceptibility to apoptosis: partially susceptible
[10]
  susceptibility to apoptosis: exhibited sensitivity
[11]
  susceptibility to apoptosis: did not undergo apoptosis
[12]
  susceptibility to apoptosis: resistant
[13]
  susceptibility to apoptosis: highly susceptible
[14]
  susceptibility to apoptosis: much less susceptible
[15]
  cells killed: ~100%
[16]
  susceptibility to apoptosis: completely resistant
[17]
  cell death: ~100%
[18]
  susceptibility to apoptosis: susceptible
[19]; 1 μg/ml TRAIL or TRA-8, 1 μg/ml cycloheximide, four-hour culture
  hepatocytes killed in the presence of cycloheximide: greater than 70%
[19]; 1 μg/ml, end of 24-hour culture, TRAIL plus crosslinker
  hepatocytes killed: more than 80%
[19]; 6-hour culture, 500 ng/ml
  hepatocytes killed: Over 20%
[20]
  liver injury after intravenous injection: did not exhibit increased liver injury
[1]
  production/release of MMPs: not associated with increased release
[21]
  binding to DR4: bound to DR4
[3]
  NF-κb activation: activated in a time-dependent fashion

## COc1cccc2c1C(=O)c1c(O)c3c(c(O)c1C2=O)C[C@@](O)(C(=O)CO)C[C@@H]3O[C@H]1C[C@H](N)[C@H](O)[C@H](C)O1 [Adriamycin, adriamycin (doxorubicin)]
[22]; 100 μg TRA-8 days 7, 10, adriamycin 3 mg/kg or paclitaxel 10 mg/kg days 8, 11, untreated 4%
  TUNEL stained cells: 8%
[22]; same regimen, untreated 1%
  intensely stained cells: 6%
[23]; [24]
  Complete Regressions No relapse (%): 0
  Complete Regressions Total (%): 0
[23]; [25]
  Tumor Doubling Time (mean): 17 days
  Tumor Doubling Time (median): 18 days
[23]; individual experiments, TRA-8 200 μg i.p. x6, adriamycin 6 mg/kg, paclitaxel 20 mg/kg, 3 Gy 60Co, Kruskal-Wallis on doubling times
  inhibition of tumor growth compared to untreated controls: did not differ from controls

B1: Fas ligand: soluble Fas ligand used with enhancer/crosslinker (protein, UniProt P48023 103-281, looked up)
extracellular domain: QLFHLQKELAELRESTSQMHTASSLEKQIGHPSPPPEKKELRKVAHLTGKSNSRSMPLEWEDTYGIVLLSGVKYKKGGLVINETGLYFVYSKVYFRGQSCNNLPLSHKVYMRNSKYPQDLVMMEGKMMSYCTTGQMWARSSYLGAVFNLTSADHLYVNVSELSLVNFEESQTFFGLYKL
modifications: extracellular domain
notes: soluble Fas ligand used with enhancer/crosslinker
[19]; Fas-mediated apoptosis, 6 hours
  difference in susceptibility among normal hepatocytes, hepatocellular carcinoma cells, and HepG2 cells: no significant difference
[3]
  NF-κb activation: unable to induce
